Test results: patent US4471113A, “Prodrugs based on phospholipid-nucleoside conjugates” (priority 1982, dated 1984)
Read-outs that look alike come from different tables or passages of the source.

Assays:
deaminase enzymes = settings: cited from earlier work; for protection of parent drug from catabolic degradation: lipophilic fatty acid esters; for catabolism via deaminase enzymes: to ineffective metabolites
[1] = in vivo studies; cited from earlier work
[2] = tested on: mouse myeloma MPC-11 (subclone 66.2) cells; assay: In vitro antiproliferative activity against mouse myeloma MPC-11 (subclone 66.2) cell line; assay type: cell-based
[3] = Solubilization of suspensions by sonication; assay type: physicochemical; settings: aqueous suspension at room temperature
Text: In the study of biological activity of the compositions of Examples 1f and II-VII, it was first necessary to prepare solutions at room temperature. Suspensions of the compounds of Examples 1f and II-VII were all subjected to known sonication techniques in order to aid solubilization. […] Finally, the best means of solubilization was achieved by mixing the sample with araCDP-L-dipalmitin prior to sonication. In this fashion, mixtures having ratios (by weight) of the mono- to diphosphate linked derivatives from 1:2 through to 3:1 were made up and such mixtures were used for the in vitro inhibition studies.

[4] = in vivo; cited from earlier work
[5] = samples made up in H2O, read-out: ED50 (the source's name)
[6] = samples made up in 0.9% saline/0.1 mM Tris, pH 7.1, read-out: ED50 (the source's name)
[7] = solvent not stated, read-out: dose required for 50% inhibition of growth of cells in tissue culture (ED50)

In the case of `Nc1ccn([C@@H]2O[C@H](COC(=O)C34CC5CC(CC(C5)C3)C4)[C@@H](O)[C@@H]2O)c(=O)n1` [5'-O-adamantoyl-araC], the “protection of parent drug from catabolic degradation” value (“protection of parent drug” below) (deaminase enzymes) is given as “protected the parent drug from catabolic degradation”.
For `CCCCCCCCCCCCCCCC(=O)OC[C@H]1O[C@@H](n2ccc(N)nc2=O)[C@@H](O)[C@@H]1O` [5'-O-palmitoyl-araC], the “protection of parent drug” value (deaminase enzymes) is given as “protected the parent drug from catabolic degradation” and the “therapeutic advantage in vivo” value [1] is given as “no therapeutic advantages”.
In the case of `CCCCC(=O)OC[C@H]1O[C@@H](n2cnc3c(N)ncnc32)[C@@H](O)[C@@H]1O` [5'-O-valeryl-araA], the “protection of parent drug” value (deaminase enzymes) is listed as “protected the parent drug from catabolic degradation”.
With `CCCCCCCCCCCCCCCC(=O)OC[C@H](COP(=O)(O)OP(=O)(O)OC[C@H]1O[C@@H](n2ccc3c(N)ncnc32)[C@H](O)[C@@H]1O)OC(=O)CCCCCCCCCCCCCCC` [TubercidinDP--L-dipalmitin, Tubercidin-5'-diphosphate-L-1,2-dipalmitin] the IC50 [2, 5] was 5 µM.
For `Nc1ncnc2c1ncn2[C@@H]1O[C@H](CO)[C@@H](O)[C@@H]1O` [araA, 9-β-D-arabinofuranosyladenine], the “catabolism via deaminase enzymes” value (deaminase enzymes) is listed as “rapid catabolism”.
In the case of `Nc1ccn([C@@H]2O[C@H](CO)[C@@H](O)[C@@H]2O)c(=O)n1` [araC, 1-β-D-arabinofuranosylcytosine], the IC50 [2, 6] is listed as 0.85 µM, the IC50 [2, 5] is listed as 0.99 µM and the “catabolism via deaminase enzymes” value (deaminase enzymes) is listed as “rapid catabolism”.
In the case of `CCCCCCCCCCCCCC(=O)OC[C@H](COP(=O)(O)OP(=O)(O)OC[C@H]1O[C@@H](n2ccc(N)nc2=O)[C@@H](O)[C@@H]1O)OC(=O)CCCCCCCCCCCCC` [araCDP-L-dimyristin], the IC50 [2, 6] is reported as 13.1 µM and the IC50 [2, 7] is reported as 15 µM.
`CCCCCCCC/C=C\CCCCCCCC(=O)OC[C@H](COP(=O)(O)OP(=O)(O)OC[C@H]1O[C@@H](n2ccc(N)nc2=O)[C@@H](O)[C@@H]1O)OC(=O)CCCCCCC/C=C\CCCCCCCC` [araCDP-L-diolein, 1-β-D-Arabinofuranosylcytosine-5'-diphosphate-L-1,2-diolein] showed an IC50 [2, 6] of 43.9 µM and an IC50 [2, 7] of 62 µM.
With `CCCCCCCCCCCCCCCC(=O)OC[C@H](COP(=O)(O)OP(=O)(O)OC[C@H]1O[C@@H](n2ccc(N)nc2=O)[C@@H](O)[C@@H]1O)OC(=O)CCCCCCCCCCCCCCC` [araCDP-L-dipalmitin] the IC50 [2, 6] was 42.1 µM and the IC50 [2, 7] was 65 µM.
For `CCCCCCCCCCCCCCCCCC(=O)OC[C@H](COP(=O)(O)OP(=O)(O)OC[C@H]1O[C@@H](n2ccc(N)nc2=O)[C@@H](O)[C@@H]1O)OC(=O)CCCCCCCCCCCCCCCCC` [araCDP-L-distearin, 1-β-D-Arabinofuranosylcytosine-5'-diphosphate-L-1,2-distearin], the solubilization by sonication [3] was “remained slightly opalescent”, the IC50 [2, 6] was 168 µM and the IC50 [2, 7] was 195 µM.
In the case of `CCCCCCCCCCCCCCCC(=O)OC[C@H](COP(=O)(O)OC[C@H]1O[C@@H](n2ccc(N)nc2=O)[C@@H](O)[C@@H]1O)OC(=O)CCCCCCCCCCCCCCC` [araCMP-L-dipalmitin], the solubilization by sonication [3] is reported as “resisted solubilization even when samples were mixed with several types of detergent prior to sonication”.
In the case of `O=c1ccn([C@@H]2O[C@H](CO)[C@@H](O)[C@@H]2O)c(=O)[nH]1` [araU, 1-β-D-arabinofuranosyluracial], the “appearance of metabolite in urine” value [4] is given as “appears rapidly in human urine”.
